Consider three compounds from patent US20080181971A1, “Combination Cancer Treatments Comprising Elsamitrucin and Other Agents” (priority 2007, published 2008).

Each structure is given as a SMILES string. “And” between values parts separate entries of the source, which are not always exact repeats. Identical values can stand only once. Like-named read-outs stand apart in the source and are kept apart here.

In assay [1] the test system is HT29 human colon carcinoma cell line. The assay can be described thus: MTT growth inhibition assay, single agents and fixed-ratio combinations with elsamitrucin (Chou-Talalay, CalcuSyn), HT29. The format is cell-based. On the procedure:
(§1) These individual agents and their combinations were evaluated for in vitro activity against the HT29 colon carcinoma, SKMES non-small cell lung carcinoma, and Daudi B-lymphoblastic cell lines. Cell growth in 96-well microculture plates was determined with a semi-automated MTT assay. Efficacies of drug combinations were analyzed according to the methods of Chou and Talalay, utilizing CalcuSyn software. Twenty-one in vitro experiments were conducted to determine the individual and combined growth inhibitory activities of elsamitrucin and the ten selected agents in the three cell lines.
(§2) b. Cell Lines. The human HT29 colon carcinoma, SKMES non-small cell lung carcinoma, and Daudi B-lymphoblastic cell lines were originally obtained from ATCC (American Type Culture Collection). These cell lines have been maintained and stored as frozen stocks. […] The medium for Daudi cells was additionally supplemented with 1 mM sodium pyruvate.
(§3) c. Growth Inhibition Assay. Anti-proliferative activities against the HT29, SKMES, and Daudi cell lines were evaluated in vitro by the MTT assay. Cells (1,500-2,000 cells/well) were seeded in a 96-well microculture plate in 180 pL of medium/well. […] DMSO was present in all wells at a final concentration of 0.1%. […] When the appropriate cell density was attained in the control wells, the plates were centrifuged briefly, and 100 pL of the growth medium was removed. The cell cultures were incubated with 50 μL of MTT reagent (1 mg/mL in Dulbecco's phosphate-buffered saline) for 4 hr at 37° C. The resultant purple formazan precipitate was solubilized with 200 μL of 0.04 N HCl in isopropanol.
(§4) The results of each experiment were stored in Excel format.
(§5) d. Preliminary Experiments: Design and Data Analysis. […] The initial experiments utilized serial three-fold dilutions of the drugs to produce ten test concentrations over a broad concentration range. Based on the initial results, a narrower concentration range was selected, and serial 1:1.5 dilutions were utilized to produce ten test concentrations. Experiments were repeated as needed.
(§6) For assays that utilized lower dilution factors to produce narrower concentration ranges, the results were analyzed with both Prism and CalcuSyn (as described below) to allow comparison of the IC50 and Da, values. The results guided the selection of appropriate concentration ranges and concentration ratios for the combination experiments.
(§7) e. Combination Experiments: Design and Data Analysis. The fixed-ratio design of Chou was used for the combination experiments. For each experiment, the drug solutions were mixed at a ratio that was expected to provide approximately equipotent concentrations, and the mixture was serially diluted with medium containing 1% DMSO to yield 10× stock solutions of the test concentrations. […] Each agent was tested individually and in combination at seven concentrations. The concentration range selected for each assay was designed to bracket the concentrations that produced half-maximal effects (ED50) with each single agent and their mixture. The concentrations used for the single-drug assays were twice as high as their concentrations in the mixture. Each assay was performed in quadruplicate. For each drug combination, the individual agents and their mixture were assayed on the same 96-well plate. The effects of the individual drugs and their combinations were analyzed by the method of Chou and Talalay. The results of each experiment were entered into CalcuSyn (BIOSOFT) for dose-effect analysis.
(§8) where Acontrol and Adrug are the respective absorbances of vehicle control and drug-treated wells in the MIT assay.
(§9) where the slope, m, is related to the sigmoidicity of the dose-effect curve, with m=1, >1, and <1 indicating hyperbolic, sigmoidal, and reverse sigmoidal shapes, respectively.

The subject of assay [2] is SKMES human non-small cell lung carcinoma cell line. The assay can be described thus: MTT growth inhibition assay, single agents and fixed-ratio combinations with elsamitrucin (Chou-Talalay, CalcuSyn), SKMES. It is filed as cell-based. On the procedure: as §1, §2, §3, §4, §5, §6, §7, §8, §9
Where [3] appears, read: Homo sapiens, HT-29, SPA-01 (HT29-e21), single agent, dilution 1:3, read-out: Prism IC50.
Setting [4] is: Homo sapiens, HT-29, SPA-04 (HT29-e22), single agent, dilution 1:1.5, read-out: CalcuSyn Dm.
Where [5] appears, read: Homo sapiens, HT-29, SPA-04 (HT29-e22), single agent, dilution 1:1.5, read-out: Prism IC50.
The mark [6] stands for this setting: Homo sapiens, HT-29, average of preliminary single-agent experiments, HT29, read-out: Average IC50, Dm value.
The mark [7] stands for this setting: Homo sapiens, SPA-02 (SKMES-e22), single agent, dilution 1:3, read-out: Prism IC50.
Where [8] appears, read: Homo sapiens, SPA-03 (SKMES-e23), single agent, dilution 1:1.5, read-out: CalcuSyn Dm.
The mark [9] stands for this setting: Homo sapiens, SPA-03 (SKMES-e23), single agent, dilution 1:1.5, read-out: Prism IC50.
[10] abbreviates: Homo sapiens, average of preliminary single-agent experiments, SKMES, read-out: Average IC50, Dm value.

Turning to `N.N.[Cl][Pt][Cl]` [Cisplatin, cisplatin], the “decrease of Dm in the combination” value in assay [1] (HT29, in combination with elsamitrucin versus single agent) is listed as 38%; in assay [2] (SKMES, in combination with elsamitrucin versus single agent), 47%. Moreover, the IC50 in assay [1] (HT29, single agent on the same plate as the combination, read-out: Dm Value, Individually, Second Agent) was 2330 nM and 1750 nM; in assay [1] (SPA-01 (HT29-e21), single agent, dilution 1:3, read-out: Prism IC50), 1850 nM; in assay [1] (SPA-04 (HT29-e22), single agent, dilution 1:1.5, read-out: CalcuSyn Dm) it was 1930 nM; in assay [1] (SPA-04 (HT29-e22), single agent, dilution 1:1.5, read-out: Prism IC50), 1860 nM; in assay [1] (average of preliminary single-agent experiments, HT29, read-out: Average IC50, Dm value), 1880 nM; in assay [2] (SKMES growth inhibition, second agent alone, one value per plate (Experiment ID), read-out: Dm Value (95% Confidence Interval), Individually, Second Agent), 1670 nM. Besides, the IC50 was 1670 nM in assay [2] (SKMES, single agent on the same plate as the combination, read-out: Dm Value, Individually, Second Agent); 675 nM in assay [2] (SPA-02 (SKMES-e22), single agent, dilution 1:3, read-out: Prism IC50); 1180 nM in assay [2] (SPA-03 (SKMES-e23), single agent, dilution 1:1.5, read-out: CalcuSyn Dm); 1140 nM in assay [2] (SPA-03 (SKMES-e23), single agent, dilution 1:1.5, read-out: Prism IC50); 1000 nM in assay [2] (average of preliminary single-agent experiments, SKMES, read-out: Average IC50, Dm value).
On to `CO[C@@H]1[C@@H](N)[C@@H](O[C@H]2[C@H](Oc3cccc4c(O)c5c(=O)oc6ccc(C)c7c(=O)oc(c34)c5c67)O[C@H](C)[C@H](O)[C@]2(C)O)O[C@H](C)[C@@H]1O` [Elsamitrucin, benzo(h)(1)benzopyrano(5,4,3-cde)(1)ebnzopyran-5,12-dione,10((2-O-(2-amino-2,6-dideoxy-3-O-methyl-alpha-D-galactopyranosyl)-6-deoxy-3-C-methyl-beta-D-galactopyranosyl)oxy)-6-hydroxy-1-methyl], for which the IC50 in assay [1] (HT29, single agent on the same plate as the combination, read-out: Dm Value, Individually, Elsamitrucin) was 36 nM and 118 nM and 96 nM and 58 nM and 54 nM and 67 nM and 39 nM and 40 nM and 103 nM and 51 nM and 37 nM and 29 nM and 86 nM and 73 nM and 50 nM and 71 nM and 124 nM and 32 nM and 27 nM; in assay [1] (Homo sapiens, HT-29, HT29, Table 1, read-out: average Dm determined in the preliminary experiments) it was 77 nM; in assay [1] (Homo sapiens, HT-29, HT29, single agent, ten selected assays of Table 2, read-out: average Dm), 63 nM; in assay [1] (Homo sapiens, HT-29, HT29, single agent, ten selected assays of Table 2, read-out: range of Dm), 36 to 118 nM; in assay [1] (Homo sapiens, HT-29, HT29 cells, single agent, read-out: average Dm), 63 nM; in assay [1] (setting [3]), 80 nM. The IC50 in assay [1] (setting [4]) is 81 nM; in assay [1] (setting [5]) it was 70 nM; in assay [1] (setting [6]), 77 nM; in assay [2] (Homo sapiens, SKMES cells, single agent, read-out: average Dm), 22 nM; in assay [2] (Homo sapiens, SKMES, single agent, ten assays of Table 5, read-out: average Dm), 22 nM; in assay [2] (Homo sapiens, SKMES, single agent, ten assays of Table 5, read-out: range of Dm), 11 to 53 nM. Also, the IC50 in assay [2] (setting [7]) is 12 nM; in assay [2] (setting [8]), 25.6 nM; in assay [2] (setting [9]) it was 24.4 nM; in assay [2] (setting [10]), 21 nM.
In the case of `CC(=O)O[C@H]1C(=O)[C@@]2(C)[C@H]([C@H](OC(=O)c3ccccc3)[C@]3(O)C[C@H](OC(=O)[C@H](O)[C@@H](NC(=O)c4ccccc4)c4ccccc4)C(C)=C1C3(C)C)[C@]1(OC(C)=O)CO[C@@H]1C[C@@H]2O` [Paclitaxel, paclitaxel], the IC50 was 3.2 nM in assay [1] (Homo sapiens, HT-29, HT29, single agent on the same plate as the combination, read-out: Dm Value, Individually, Second Agent); 1.6 nM in assay [1] (setting [3]); 2.3 nM in assay [1] (setting [4]); 2.4 nM in assay [1] (setting [5]); 2 nM in assay [1] (setting [6]); 3.5 nM in assay [2] (Homo sapiens, SKMES growth inhibition, second agent alone, one value per plate (Experiment ID), read-out: Dm Value (95% Confidence Interval), Individually, Second Agent). In addition, the IC50 in assay [2] (Homo sapiens, SKMES, single agent on the same plate as the combination, read-out: Dm Value, Individually, Second Agent) was 3.5 nM; in assay [2] (setting [7]), 1.1 nM; in assay [2] (setting [8]), 2.8 nM; in assay [2] (setting [9]) it was 2.6 nM; in assay [2] (setting [10]), 2 nM.
